Assay [1] relates to human HepG2 cells. Briefly: Intracellular calcium dynamics with Fura-2 AM in insulin resistance induced cells. Type of assay: cell-based. How it is done: First, human HepG2 cells were cultured in DMEM (Dulbecco's Modified Eagle Medium) supplemented with 10% fetal bovine serum (FBS), 25 mM glucose, 2 mM L-glutamine, 100 U/Ml of penicillin and 100 μg/Ml of streptomycin. At this time, the culture was performed in a 37° C., 5% CO2 incubator. The cultured cells were distributed in a culture plate at the density of 5.0×10^5 cells/well, followed by further culture for overnight. Palmitic acid (PA) was added to the plate at the concentration of 0, 100, 300 or 500 μM, followed by reaction for 24 hours. Then, the concentration of calcium was investigated by using Fluo-3 AM according to the same conditions and procedures as described in Example 1, and the results are shown in FIG. 2A and FIG. 2B. Intracellular calcium dynamics was confirmed in the fatty liver cell model constructed in vitro by inducing insulin resistance. At this time, the experiment was performed by the same manner under the same conditions as described in Example 3 except that Fura-2 AM was used instead of Fluo-3 AM.
(In general: A change in cytosolic calcium serves as a functional read-out for many receptors and channels.)

Assay [2] concerns human HepG2 cells. Put plainly: Intracellular calcium level with Fluo-3 AM in PA-treated HepG2 cells. Type of assay: cell-based. The settings on record: PA 0, 100, 300 or 500 μM, 24 hours. The procedure: First, male C57BL/6 mice at 8 weeks (Orient Bio, Korea) were raised in an animal facility of Lee Gil Ya Cancer and Diabetes Institute (Gachon University, Korea). Particularly, the mice were raised in a sterile chamber at the temperature of 23±1° C., with 12 hr/12 hr light/dark cycle, and free dietary environment. At this time, the mice were divided into the fasted group wherein the mice were fasted for 16 hours and the refed group wherein the mice were fasted for 16 hours and then fed for 4 hours. Each group was sub-divided into the high fat diet group (HFD) and the normal diet group (chow). The high fat diet group (HFD) mice were fed with diet containing 60% fat, while the normal diet group (chow) mice were fed with diet containing 10% fat. 8 weeks later, the mice were anesthetized and the liver was perfused by using buffer 1 (142 mM NaCl, 6.7 mM KCl, 10 mM HEPES and 2.5 mM EGTA, pH 7.4). Buffer 1 above was replaced with buffer 2 (0.5 mg/Me collagen, 66.7 mM NaCl, 6.7 mM KCl, 10 mM HEPES and 4.8 mM CaCl, pH 7.6), and then the perfused liver was extracted. The extracted liver was washed and degraded by using Percoll cushion gradient. The degraded cells were suspended and cultured in Hepatozyme-SFM (Gibco-BRL, USA) culture medium supplemented with 10% FBS and 1% antibiotics and antifungal agent. […] The mounted cells were analyzed using a fluorescence microscope (Zeiss Axioplan 2). […]

A further assay deals with Akt protein. Put plainly: Western blotting of Akt protein phosphorylation in insulin-treated HepG2 cells. The assay is classed as cell-based, human. The settings on record: HepG2, PA 24 hours, 100 nM insulin; compared with insulin alone. The procedure:
First, male C57BL/6 mice at 8 weeks were divided into the fasted group wherein the mice were fasted for 16 hours and the refed group wherein the mice were fasted for 16 hours and then fed for 4 hours. Each group was sub-divided into the high fat diet group (HFD) and the normal diet group (chow). The liver cells were extracted from the raised mice by the same manner and under the same conditions as described in Example 1. The extracted liver cells were lysed in a lysis buffer containing phosphatase (Sigma-Aldrich, USA) and protease inhibitor (Sigma-Aldrich, USA). Proteins extracted from 2 to 3 mg of the liver tissue were homogenized by using a tissue homogenizer (TissuLyser, Qiagen, USA) for 1.5 minutes at a frequency of 1/30 sec. The homogenized lysate was centrifuged at 12,000 rpm for 15 minutes and the supernatant was obtained. The amount of the extracted protein was quantified by using a protein assay kit (Bio-Rad Laboratories, USA), and at this time BSA was used as a standard sample. 3 mg of the protein was mixed with 6× loading buffer, followed by electrophoresis using 10% SDS-PAGE gel. The electrophoresed protein was transferred onto a polyvinylidene fluoride (PVDF) membrane by using a transfer buffer at 4° C. with 120 V for 1.5 hours. The PVDF membrane on which the protein was transferred was pretreated with a blocking buffer prepared by mixing 5% skim milk with TBS buffer (TBS-T, pH 7.6) supplemented with Tween 20 for 30 minutes, and the membrane was washed with TBS-T. The washed membrane was added with the antibody against Akt (Cell Signaling Technology, USA), Akt(T308) (Cell Signaling Technology, USA), Akt(S473) (Cell Signaling Technology, USA), FOXO3A (Cell Signaling Technology, USA), FOXO3A(S253) (Cell Signaling Technology, USA), GSK-3β (Cell Signaling Technology, USA) or GSK-3β(S9) (Cell Signaling Technology, USA) protein as a primary antibody, followed by reaction at 4° C. for 12 hours. At this time, the antibody against actin (Santa Cruz Biotechnology, USA) protein was used for the control group. Upon completion of the reaction, the secondary antibody corresponding to the primary antibody was added thereto, followed by reaction at room temperature for 30 minutes. The PVDF membrane was washed with TBS-T buffer three times. The washed PVDF membrane was added with ECL solution (Thermo Scientific, USA), followed by image observation.
To investigate the changes in insulin sensitivity when insulin was added to the fatty liver cell model constructed in vitro, the phosphorylations of those proteins that were involved in insulin signaling mechanism were examined. PA was added to the human HepG2 cells prepared in Example 3, followed by reaction for 24 hours. […]

In the case of `CCCCCCCCCCCCCCCC(=O)O` [PA, Palmitic acid], the intracellular calcium concentration result in the assay on human HepG2 cells [1] is on record as “significantly increased”. Also, the “concentration of calcium in the cytoplasm” value with human HepG2 cells [2] is on record as “increased”. In the assay on Akt protein, the Akt protein phosphorylation entry is “significantly inhibited”.

The values above are taken from patent publication US20190153051A1, “FUSION PROTEIN OF C2 DOMAIN AND AKT KINASE DOMAIN FRAGMENT AND USE THEREOF” (Gachon University of Industry-Academic Cooperation …, priority 2017, published 2019).
